Patent US20250325529A1, “INHIBITORS OF FATTY ACID BINDING PROTEINS (FABPs), METHODS OF USE AND METHODS OF MAKING” (Celloram, inc., priority 2024, published 2025)
Like-named read-outs stand apart in the source and are kept apart here.

What was measured:
[1] = test system: normal human mammary epithelial cells (HMEC); experiment: Proliferation assay (Incucyte confluency), HMEC; format: cell-based
Description: COS-7, MDA-MB-231, and HepG2, were cultured in Dulbecco's modified Eagle's medium (DMEM) supplemented with 10% fetal bovine serum (Invitrogen Life Sciences, Carlsbad, CA). BT-549, OVCAR5 and OVCAR8 cells were cultured in L-Glutamine containing RPMI medium supplemented with 10% fetal calf serum (Invitrogen Life Sciences, Carlsbad, CA). The primary Human Mammary Epithelial Cells (HMEC) were cultured in mammary epithelial cell complete medium (basal medium plus rH-Insulin (5 μg/mL); L-Glutamine (6 mM); Epinephrine (1 μM); Apo-Transferrin (5 μg/mL); rH-TGF-α (0.5 ng/mL); ExtractP (0.4%); Hydrocortisone Hemisuccinate (100 ng/mL)).
2000 cells were plated in each well of 96-well plate. The next day cells were treated with compounds and incubated in Incucyte for 4 days. Images taken every 4 hours for the duration of the time were analyzed to calculate percentage of confluency in response to the treatments. Growth inhibition was calculated as 1—(percentage of viable cells out of untreated cells).

[2] = Tissue distribution in C57BL/6 male mice; format: in vivo, C57BL/6 mice; settings: oral 10 mg/kg; for PK parameters / concentration at 0.5 h / concentration at 2 h / concentration at 4 h / concentration at 8 h / Kp: mice; for concentration at 0.5 h / concentration at 2 h / concentration at 4 h / concentration at 8 h / Kp: male, C57BL/6, mouse; for Kp: read-out: Tissue/Plasma ratio (Kp)
[3] = test system: Salmonella typhimurium tester strain TA1535; experiment: Ames test (Bacterial Reverse Mutation Test), TA1535; format: cell-based
Description: (§1) PD152 (compound 2) was tested for genotoxic and cytotoxic side effects by Ames test. The Ames test is a Bacterial Reverse Mutation Test of mutagenicity that utilizes Salmonella typhimurium tester strains TA98, TA100, TA1535, TA1537 and Escherichia coli tester strain WP2 uvrA (pKM101), both in the presence and absence of S9.
(§2) The compound PD152 was tested at 10 concentrations (0.032-1000 μg/plate) in the presence of, or absence of, the hepatic enzyme S9.
(§3) The aniline FABP4/5 inhibitor compound, 2-((2-((2,4-dichloro-5-isopropoxyphenyl)amino)-2-oxoethyl)thio)-2-methylpropanoic acid (compound “B104” as disclosed in WO2023043803A1) also was tested for genotoxic and cytotoxic side effects by Ames test. B104 was tested using the Salmonella typhimurium tester stains TA98, TA100, TA1535, and TA1537, both in the presence and absence of the hepatic enzyme S9, at 5 concentrations (1.5-64 μg/plate).

[4] = test system: Salmonella typhimurium tester strains TA98, TA100, TA1535, TA1537 and Escherichia coli tester strain WP2 uvrA (pKM101); experiment: Ames test, overall conclusion for the tested strains; format: cell-based; settings: presence and absence of S9
Description: as §1, §2, §3

[5] = brain, read-out: Brain concentration
[6] = liver, read-out: Liver concentration
[7] = pancreas, read-out: Pancreas concentration
[8] = plasma, read-out: Plasma concentration
[9] = skeletal muscle, read-out: Skeletal muscle concentration
[10] = white adipose tissue, read-out: Adipose tissue concentration
[11] = TA1535, absence of S9, 0.0312 μg/plate
[12] = TA1535, absence of S9, 0.1 μg/plate
[13] = TA1535, absence of S9, 0.316 μg/plate
[14] = TA1535, absence of S9, 1 μg/plate
[15] = TA1535, absence of S9, 3.16 μg/plate
[16] = TA1535, absence of S9, 10 μg/plate
[17] = TA1535, absence of S9, 31.6 μg/plate
[18] = TA1535, absence of S9, 100 μg/plate
[19] = TA1535, absence of S9, 316 μg/plate
[20] = TA1535, absence of S9, 1000 μg/plate
[21] = TA1535, presence of S9, 0.0312 μg/plate
[22] = TA1535, presence of S9, 0.1 μg/plate
[23] = TA1535, presence of S9, 0.316 μg/plate
[24] = TA1535, presence of S9, 1 μg/plate
[25] = TA1535, presence of S9, 3.16 μg/plate
[26] = TA1535, presence of S9, 10 μg/plate
[27] = TA1535, presence of S9, 31.6 μg/plate
[28] = TA1535, presence of S9, 100 μg/plate
[29] = TA1535, presence of S9, 316 μg/plate
[30] = TA1535, presence of S9, 1000 μg/plate

## CC(C)Oc1nc(NC(=O)CSCC(=O)O)c(Cl)cc1Cl [PD152, 2-((2-((3,5-dichloro-6-isopropoxypyridin-2-yl)amino)-2-oxoethyl)thio)acetic acid]
[1]; HMEC cells, 4 days
  Concentrations at which proliferation of HMEC cells was inhibited: > 125 µM
[1]; Homo sapiens, 96 h, HMEC cells, 4 days, read-out: IC50, inhibition of proliferation
  IC50: 319 µM
[1]; IC50 HMEC vs BT-549
  Fold lower efficacy in HMEC than in BT-549 cells: 305 fold
[1]; IC50 HMEC vs MB-231
  Fold lower efficacy in HMEC than in MB-231 cells: 532 fold
[2]; Adipose tissue
  PK parameters: 6655.32 ng·h/g
  Kp: 1.3
[2]; C57BL/6 male mice
  Detection in the brain (blood-brain barrier crossing): Only traces
  Mean peak adipose tissue concentration: 2109.6 ng/g
  Mean peak liver concentration: 3893.5 ng/g
  Mean peak pancreas concentration: 215.09 ng/g
  Mean peak plasma concentration: 3929.88 ng/mL
  Mean peak skeletal muscle concentration: 139.45 ng/g
[2]; Liver
  PK parameters: 6704.59 ng·h/g
  Kp: 1.3
[2]; Pancreas
  PK parameters: 352.54 ng·h/g
  Kp: 0.07
[2]; Skeletal Muscle
  PK parameters: 270.09 ng·h/g
  Kp: 0.05
[2]; [5]
  concentration at 0.5 h: 14.8 ng/g
  concentration at 2 h: 0 ng/g
  concentration at 4 h: 0 ng/g
  concentration at 8 h: 0 ng/g
[2]; [6]
  concentration at 0.5 h: 3890 ng/g
  concentration at 2 h: 419 ng/g
  concentration at 4 h: 534 ng/g
  concentration at 8 h: 238 ng/g
[2]; [7]
  concentration at 0.5 h: 215 ng/g
  concentration at 2 h: 28.2 ng/g
  concentration at 4 h: 20 ng/g
  concentration at 8 h: 14 ng/g
[2]; [8]
  concentration at 0.5 h: 3930 ng/mL
  concentration at 2 h: 236 ng/mL
  concentration at 4 h: 210 ng/mL
  concentration at 8 h: 149 ng/mL
[2]; [9]
  concentration at 0.5 h: 139 ng/g
  concentration at 2 h: 26.5 ng/g
  concentration at 4 h: 14 ng/g
  concentration at 8 h: 21.1 ng/g
[2]; [10]
  concentration at 0.5 h: 2110 ng/g
  concentration at 2 h: 1020 ng/g
  concentration at 4 h: 520 ng/g
  concentration at 8 h: 596 ng/g
[3]; [11]
  Fold increase: 1
  Mean number of revertants: 3
[3]; [12]
  Fold increase: 1
  Mean number of revertants: 3
[3]; [13]
  Fold increase: 1
  Mean number of revertants: 3
[3]; [14]
  Fold increase: 1
  Mean number of revertants: 3
[3]; [15]
  Fold increase: 1
  Mean number of revertants: 3
[3]; [16]
  Fold increase: 1
  Mean number of revertants: 4
[3]; [17]
  Fold increase: 1
  Mean number of revertants: 4
[3]; [18]
  Fold increase: 1
  Mean number of revertants: 4
[3]; [19]
  Fold increase: 1
  Mean number of revertants: 3
[3]; [20]
  Fold increase: 1
  Mean number of revertants: 3
[3]; [21]
  Fold increase: 1
  Mean number of revertants: 3
[3]; [22]
  Fold increase: 1
  Mean number of revertants: 4
[3]; [23]
  Fold increase: 1
  Mean number of revertants: 3
[3]; [24]
  Fold increase: 1
  Mean number of revertants: 4
[3]; [25]
  Fold increase: 1
  Mean number of revertants: 4
[3]; [26]
  Fold increase: 1
  Mean number of revertants: 4
[3]; [27]
  Fold increase: 1
  Mean number of revertants: 4
[3]; [28]
  Fold increase: 1
  Mean number of revertants: 4
[3]; [29]
  Fold increase: 1
  Mean number of revertants: 4
[3]; [30]
  Fold increase: 1
  Mean number of revertants: 4
[4]
  Cytotoxicity to the tested strains: non-cytotoxic
  Mutagenicity in the Ames test: non-mutagenic
